# From patent US20040067894A1, “Preparation having antioxidant properties” (Merck Patent GmbH, priority 2002, published 2004)
# Experiment: DPPH assay (free-radical scavenging, antioxidant activity)
# Assay type: biochemical
# Settings: for AE (×10^−3): anti-free-radical efficiency, obtained from EC50 and TEC50; for TEC50: reaction time necessary to achieve the EC50 value
# Method: 2,2-Diphenyl-1-picrylhydrazyl is a free radical which is stable in solution. The unpaired electron results in a strong absorption band at 515 nm, and the solution has a dark violet color. In the presence of a free-radical scavenger, the electron is paired, the absorption disappears, and the decoloration proceeds stoichiometrically taking into account the electrons taken up. The absorbance is measured in a photometer. The anti-free-radical property of the substance to be tested is determined by measuring the concentration at which 50% of the 2,2-diphenyl-1-picrylhydrazyl employed has reacted with the free-radical scavenger. This concentration is expressed as EC50, a value which can be considered to be a property of the substance under the given measurement conditions. The substance investigated is compared with a standard (for example tocopherol). The EC50 value here is a measure of the capacity of the respective compound to scavenge free radicals. The lower the EC50 value, the higher the capacity to scavenge free radicals.
# A further important aspect for the action of the antioxidants is the time in which this EC50 value is reached. This time, measured in minutes, gives the TEC50 value, which allows a conclusion to be drawn on the rate at which these antioxidants scavenge free radicals.
# The antioxidant activity of the compounds according to the invention is determined compared with the activity of quercetin (3,5,7,3′,4′-pentahydroxyflavone) and other conventional antioxidants. The antioxidant activity here is taken to mean the ability to function as hydrogen or electron donor and thus to be able to scavenge free radicals. DPPH assay is used for the determination.
# A stock solution of 2,2-diphenyl-1-picrylhydrazyl (DPPH) in ethanol is prepared (0.025 g/l of DPPH-free radicals). Aliquots of this solution are mixed with various concentrations of the compound to be tested. The absorbance is in each case measured at 515 nm, 25° C. and 1 cm.
# The lower this value, the higher the corresponding antioxidant activity.
# The reaction time necessary to achieve this value is indicated in the value TEC50 (in minutes).
# The anti-free-radical efficiency (AE) is obtained from this in accordance with the following relationship: [formula]
# A higher AE value here indicates a higher activity against free radicals.
Compound,AE (×10^−3),TEC50
"O=C1c2c(O)cc(O)cc2OC(c2ccc(O)c(O)c2)C1O (stereo not shown) [3,5,7,3′,4′-Pentahydroxyflavanone]",5.53 ×10^−3,1200 min
"O=c1c(O)c(-c2ccc(O)c(O)c2)oc2cc(O)cc(O)c12 [3,5,7,3′,4′-pentahydroxyflavone]",18.72 ×10^−3,600 min
"O=c1cc(-c2ccccc2)oc2cc(O)c(O)c(O)c12 [5,6,7-Trihydroxyflavone/bacalein, 5,6,7-trihydroxyflavone]",27.78 ×10^−3,360 min
"O=c1cc(-c2ccc(O)c(O)c2)oc2ccc(O)cc12 [6,3′,4′-Trihydroxyflavone, 6,3′,4′-trihydroxyflavone]",46.30 ×10^−3,180 min
"O=c1cc(-c2ccc(O)c(O)c2)oc2c(O)c(O)ccc12 [7,8,3′,4′-Tetrahydroxyflavone, 7,8,3′,4′-tetrahydroxyflavone]",18.52 ×10^−3,600 min
O=C1O[C@H]([C@@H](O)CO)C(O)=C1O [Ascorbic acid],61.72 ×10^−3,<60 min
COc1cc(/C=C/C(=O)O)ccc1O [Ferulic acid],4.9 ×10^−3,600 min
Tocopherol,64.1 ×10^−3,<60 min
